According to patent publication US20260191802A1, “DRUG TO TREAT STIMULANT ADDICTION” (SINGLE DOSE THERAPEUTICS, INC., priority 2023, published 2026):

What was measured:
[1] = Onset of therapeutic effect after oral administration; type: in vivo; settings: orally administered
From the text: The objective of the present disclosure is to improve the standard of care in treating mental disorders, such as StUD, by facilitating extinction learning through the administration of a therapeutically effective amount of bromantane or an analogue thereof. While bromantane or an analogue of bromantane can be administered uncompounded, administering a pharmaceutical preparation that ensures consistent absorption and fosters patient adherence to the treatment regimen is advantageous. For example, the onset of therapeutic effect for orally administered crystalline bromantane free base is slow (2-3 hours) due to solubility-limited absorption and high first-pass extraction. Preparations that improve bromantane's solubility or bioavailability to produce a faster onset of therapeutic effect are advantageous for addressing acute incentive salience expeditiously in the treatment of StUD, thereby increasing the likelihood of patient adherence to the treatment regimen and reducing the likelihood of relapse. Accordingly, the present disclosure also provides novel, advantageous pharmaceutical preparations of bromantane and their methods of use.

[2] = Dynamic Vapor Sorption (DVS) isothermal water sorption and desorption; type: physicochemical; settings: 25° C. and 80% RH
Experimental: The solubility advantage imparted by a specific salt form of bromantane compared to the free base form cannot be predicted with certainty because the interactions of the counterion with the therapeutic agent and dissolution medium are unique and complex. Empirical testing is necessary. Dynamic Vapor Sorption (DVS) testing was performed to compare the isothermal water sorption and desorption behaviors of bromantane free base Form I [FIG. 22] with that of bromantane hydrochloride Form I [FIG. 23].

[3] = Aqueous equilibrium solubility, slurry in water, HPLC of supernatant; type: physicochemical; settings: 24 hours of equilibration at room temperature
[4] = system: participants who had self-reported drug dependencies to a drug of concern; test: Exploratory study of bromantane intervention in participants with self-reported drug dependencies; type: in vivo, human
Experimental: To investigate the utility of bromantane as a single-agent pharmacological intervention to interrupt stimulant dependence, an exploratory study was conducted with participants who had self-reported drug dependencies to a drug of concern. The intervention consisted of Test Article (bromantane) administered at a dose of 50 mg qd po for 7 days, starting on the first day of Week 1 of the study. Results from the exploratory study are summarized in [FIG. 2]. The number of days the drug of concern was used by the participant during each 1-week period during the 4-week study is shown in the Drug Dependency column.
In addition to being an effective single-agent pharmacological intervention to interrupt stimulant dependence, it was discovered that bromantane has utility as a treatment for certain comorbidities that are specifically underpinned by maladaptive learning, such as occupational burnout exacerbated by conditioned fear responses and attention-deficit/hyperactivity disorder arising from inhibitory control dysfunction. […] Therefore, the present disclosure also provides novel therapeutic methods of use for bromantane to facilitate extinction learning in the treatment of mental disorders or syndromes.

[5] = participants with cocaine or amphetamine dependencies, 50 mg qd po for 7 days, 4-week study

| Structure (SMILES) | onset of therapeutic effect [1] [h] | hygroscopicity (water gain by DVS) [2] | equilibrium solubility in water (solution state concentration of bromantane) [3] | cravings and withdrawal syndrome associated with addiction to stimulants of abuse ([4]; amphetamine, methamphetamine, cocaine) | counterproductive behaviors and thought patterns triggered by conditioned stimuli ([4]; analysis of subjective effects reported by participants) | secondary dependence ([4]; in vivo) | opioid use ([4]; participant with opioid dependence, during the period of intervention, 50 mg qd po for 7 days) | abstinence from drug of concern [4, 5] | duration of maintained abstinence [4, 5] | caffeine use ([4]; participants, 50 mg qd po for 7 days) | insomnia caused by rumination ([4]; self-reported by participants) | temperament (threshold for irritability or anger) ([4]; self-reported by participants) |
| --- | --- | --- | --- | --- | --- | --- | --- | --- | --- | --- | --- | --- |
| Brc1ccc(NC2C3CC4CC(C3)CC2C4)cc1 (stereo not drawn) [bromantane free base Form I] | 2 to 3 | non-hygroscopic (x<0.2% w/w gain at 25 °C and 80% RH) | below the detection limit | – | – | – | – | – | – | – | – | – |
| Brc1ccc(NC2C3CC4CC(C3)CC2C4)cc1 (stereo not drawn) [bromantane] | – | – | – | eliminates or significantly reduces | pronounced reduction | without leading to secondary dependence | reduction in opioid use | achieved abstinence on the first day of intervention | maintain abstinence for approximately three weeks | unplanned reduction in caffeine use | Alleviation of insomnia | improved temperaments |
